Test results reported in patent publication US20200131144A1, “AMINE OR (THIO)AMIDE CONTAINING LXR MODULATORS” (Phenex-FXR GmbH, priority 2017, published 2020).

Columns and labels:
[1] = Pharmacokinetics in mice after single oral dosing, blood and liver exposure by LC-MS; type: in vivo, mice (C57/bl6/J); conditions: for Kp at 4 h / Kp at 12 h: male, C57/bl6/J, mouse, liver/blood, read-out: liver/blood ratio; for Kp at 4 h / blood/plasma exposure / liver exposure / Kp at 12 h: single oral dose 20 mg/kg
Procedure: The pharmacokinetics of the compounds was assessed in mice after single dosing and oral administrations. Blood and liver exposure was measured via LC-MS.
The study design was as follows:
Animals: C57/bl6/J (Janvier) males Diet: standard rodent chow Dose: 20 mg/kg Animal handling: animals were withdrawn from food at least 12 h before administration Design: single dose oral administration, n=3 animals per group Sacrifice: at stated time point (4, 12 or 24 h) after administration Bioanalytics: LC-MS of liver and blood samples

[2] = biological target: T1, LXRα full length (FL) (Homo sapiens, UniProt Q13133); test: LXR Gal4 reporter transient transfection assay, mammalian two-hybrid, FL-M2H Gal4α; type: cell-based; conditions: HEK293 cells; inverse agonist unless *
T1 construct: the full length (FL) proteins of LXRα (amino acids 1-447); NP005684; expressed in transfected cells; host or cells: HEK293
T1 sequence (Q13133 1-447): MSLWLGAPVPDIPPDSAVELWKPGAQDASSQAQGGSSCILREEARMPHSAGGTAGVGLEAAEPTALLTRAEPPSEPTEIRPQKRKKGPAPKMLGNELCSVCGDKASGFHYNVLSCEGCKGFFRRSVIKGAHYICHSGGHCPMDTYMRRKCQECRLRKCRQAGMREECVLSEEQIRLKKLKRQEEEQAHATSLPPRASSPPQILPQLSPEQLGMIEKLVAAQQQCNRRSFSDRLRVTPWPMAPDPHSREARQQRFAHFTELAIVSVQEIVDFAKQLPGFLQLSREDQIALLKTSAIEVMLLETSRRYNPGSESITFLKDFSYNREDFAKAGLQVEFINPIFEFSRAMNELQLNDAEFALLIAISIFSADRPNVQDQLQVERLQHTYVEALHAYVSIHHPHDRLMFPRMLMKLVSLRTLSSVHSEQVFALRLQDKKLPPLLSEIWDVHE
Outline: (§1)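 Mammalian two-hybrid read-out: interaction of LXRα or LXRβ (full length or ligand-binding domain, NFkB activation-domain fusions) with GAL4-fused SRC1 or NCoR domains drives GAL4-responsive firefly luciferase in HEK293 cells, normalised by Renilla cotransfection. Compounds given 4 h after transfection, ≤0.2% vehicle, cells lysed after 16 h.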

[3] = biological target: T2, GST-LXRβ ligand-binding domain (Homo sapiens, UniProt P55055, INS174Q); test: TR-FRETβ activity assay (NCoA3 coactivator peptide recruitment); type: biochemical; conditions: 1 μM 24(S)-25-epoxycholesterol as prestimulating agonist; inverse agonist unless *
T2 construct: amino acids 156-461; NP009052; made in house; host or cells: E. coli
T2 sequence (P55055 with tags, fused parts or gaps INS174Q limits assumed): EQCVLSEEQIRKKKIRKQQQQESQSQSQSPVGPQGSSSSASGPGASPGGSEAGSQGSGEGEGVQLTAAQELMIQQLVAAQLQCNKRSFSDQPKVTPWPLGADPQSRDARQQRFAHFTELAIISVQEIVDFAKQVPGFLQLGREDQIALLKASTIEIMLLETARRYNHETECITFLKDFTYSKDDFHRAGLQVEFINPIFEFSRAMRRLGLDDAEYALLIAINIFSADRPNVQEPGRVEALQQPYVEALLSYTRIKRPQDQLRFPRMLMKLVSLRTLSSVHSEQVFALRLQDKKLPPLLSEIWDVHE
Outline: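 Coactivator recruitment read as TR-FRET (ex 340, em 615 and 665 nm) after 1 h equilibration at 4° C, in triplicate. Mix held 76 nM GST-tagged LXRβ LBD (aa 156-461, E. coli), 400 nM biotin-NCoA3 peptide, Tb-cryptate anti-GST, streptavidin-XL665, 240 mM KCl buffer.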

[4] = biological target: T3, LXRβ full length (FL) (Homo sapiens, UniProt P55055, INS174Q); test: LXR Gal4 reporter transient transfection assay, mammalian two-hybrid, FL-M2H Gal4β; type: cell-based; conditions: HEK293 cells; inverse agonist unless *
T3 construct: the full length (FL) proteins of LXRα (amino acids 1-447); NP005684; NP009052; expressed in transfected cells; host or cells: HEK293
T3 sequence (P55055 with tags, fused parts or gaps INS174Q): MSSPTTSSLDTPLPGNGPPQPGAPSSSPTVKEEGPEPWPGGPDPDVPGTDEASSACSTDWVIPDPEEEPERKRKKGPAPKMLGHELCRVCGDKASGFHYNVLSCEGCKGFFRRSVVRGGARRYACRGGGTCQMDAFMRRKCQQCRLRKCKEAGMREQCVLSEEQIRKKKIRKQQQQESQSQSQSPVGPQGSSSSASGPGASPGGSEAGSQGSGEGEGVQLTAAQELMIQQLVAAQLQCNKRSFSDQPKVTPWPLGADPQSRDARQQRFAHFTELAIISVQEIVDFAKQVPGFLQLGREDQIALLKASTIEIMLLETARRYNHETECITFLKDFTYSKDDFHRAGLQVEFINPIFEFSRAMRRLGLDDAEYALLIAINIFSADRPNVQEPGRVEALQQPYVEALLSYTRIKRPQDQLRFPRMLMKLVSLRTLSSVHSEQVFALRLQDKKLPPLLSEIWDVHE
Outline: as §1

SMILES | EC50 [2] | EC50 [3] | EC50 [4] | further results
Cc1cc(C)c(CN(Cc2ccc(-c3cc(F)c(CO)c(S(=O)(=O)CC(=O)O)c3)cc2)Cc2ccc(C(F)(F)F)o2)c(C)c1 [20/1] | 1 to 10 µM | 0.1 to 1 µM | 0.1 to 1 µM | Kp at 4 h ([1]; time point 4 h): 64; blood/plasma exposure ([1]; time point 4 h): 1.0 µM; liver exposure ([1]; time point 4 h): 64 µM
Cc1cc(C)c(CN(Cc2ccc(-c3cncc(S(=O)(=O)CC(=O)O)c3)cc2)Cc2ccc(C(F)(F)F)o2)c(C)c1 [12/2] | – | – | – | Kp at 12 h ([1]; time point 12 h): 2.4; blood/plasma exposure ([1]; time point 12 h): 0.34 µM; liver exposure ([1]; time point 12 h): 0.83 µM
Cc1cc(C)c(CN(Cc2ccc(-c3cccc(C(C)(C)C(=O)O)c3)cc2)Cc2ccc(C(F)(F)F)o2)c(C)c1 [Example 10] | 0.1 to 1 µM | < 0.1 µM | 0.1 to 1 µM | Kp at 12 h ([1]; time point 12 h): 2.7; blood/plasma exposure ([1]; time point 12 h): 0.57 µM; liver exposure ([1]; time point 12 h): 1.5 µM
Cc1ccc2c(F)cccc2c1C(=O)N(Cc1ccc(-c2cccc(C(C)(C)C(=O)O)c2)cc1)Cc1ccc(C(F)(F)F)o1 [27/12] | < 0.1 µM | < 0.1 µM | < 0.1 µM | Kp at 12 h ([1]; time point 12 h): 11; blood/plasma exposure ([1]; time point 12 h): 3.99 µM; liver exposure ([1]; time point 12 h): 43.7 µM
Cc1ccc2ccccc2c1CN(Cc1ccc(-c2cccc(S(=O)(=O)CC(=O)O)c2)cc1)Cc1ccc(C(F)(F)F)o1 [Example 7/1] | 0.1 to 1 µM | 1 to 10 µM | < 0.1 µM | Kp at 4 h ([1]; time point 4 h): 86; blood/plasma exposure ([1]; time point 4 h): 0.21 µM; liver exposure ([1]; time point 4 h): 18 µM
CCOC(=O)c1ccc(CN(Cc2ccc(-c3cccc(S(C)(=O)=O)c3)cc2)S(=O)(=O)c2c(C)cc(C)cc2C)o1 [SR9238, reference compound] | – | – | – | oral bioavailability ([1]; single dose oral administration, 20 mg/kg): not orally bioavailable and hepatoselective
COC(=O)CS(=O)(=O)c1cccc(-c2ccc(CN(Cc3ccc(C(F)(F)F)o3)C(C)c3cccc4ccccc34)cc2)c1 (stereo not shown) [Example 6, Methyl 2-((4′-(((1-(naphthalen-1-yl)ethyl)((5-(trifluoromethyl)furan-2-yl)methyl)amino)methyl)-[1,1′-biphenyl]-3-yl)sulfonyl)acetate] | – | – | – | Kp at 4 h ([1]; time point 4 h): 45; blood/plasma exposure ([1]; time point 4 h): 0.20 µM; liver exposure ([1]; time point 4 h): 9.08 µM
Cc1nc2ccccc2c(C(=O)N(Cc2ccc(-c3cccc(C(C)(C)C(=O)O)c3)cc2)Cc2ccc(C(F)(F)F)o2)c1O [27/120] | 0.1 to 1 µM | 1 to 10 µM | 0.1 to 1 µM | –
Cc1ccc2ccc(C)c(CN(Cc3ccc(-c4cccc(C(C)(C)C(=O)O)c4)cc3)Cc3ccc(C(F)(F)F)o3)c2c1 [27/20] | < 0.1 µM | 0.1 to 1 µM | < 0.1 µM | –
CC(C)(C(=O)O)c1cccc(-c2ccc(CN(Cc3ccc(C(F)(F)F)o3)C(=O)c3cc(C4CC4)nc4ccccc34)cc2)c1 [27/129] | 0.1 to 1 µM | 0.1 to 1 µM | < 0.1 µM | –
Cc1ccc2ccc(C(N)=O)cc2c1CN(Cc1ccc(-c2cccc(C(C)(C)C(=O)O)c2)cc1)Cc1ccc(C(F)(F)F)o1 [27/25] | 0.1 to 1 µM | 1 to 10 µM | < 0.1 µM | –
COc1ncc(CN(Cc2ccc(-c3cccc(C(C)(C)C(=O)O)c3)cc2)Cc2ccc(C(F)(F)F)o2)c2ccccc12 [27/19] | < 0.1 µM | 0.1 to 1 µM | < 0.1 µM | –
COC(C)(C(=O)O)c1cccc(-c2ccc(CN(Cc3ccc(C(F)(F)F)o3)C(=O)c3c(C)ccc4ccccc34)cc2)c1 (stereo not shown) [27/11] | < 0.1 µM | 1 to 10 µM | < 0.1 µM | –
Cc1ccc2ccccc2c1C(=O)N(Cc1ccc(-c2cccc(S(=O)(=O)CC(=O)O)c2)cc1)Cc1ccc(C(F)(F)F)n1C [Example 28, 2-((4′-((2-Methyl-N-((1-methyl-5-(trifluoromethyl)-1H-pyrrol-2-yl)methyl)-1-naphthamido)methyl)-[1,1′-biphenyl]-3-yl)sulfonyl)acetic acid] | 0.1 to 1 µM | > 10 µM | 1 to 10 µM | –
Cc1ccc2ccccc2c1CN(Cc1ccc(-c2cccc(C(=O)C(=O)O)c2)cc1)Cc1ccc(C(F)(F)F)o1 [27/82] | 0.1 to 1 µM | 1 to 10 µM | 0.1 to 1 µM | –
CCc1ccc2ccccc2c1CN(Cc1ccc(-c2cccc(C(C)(C)C(=O)O)c2)cc1)Cc1ccc(C(F)(F)F)o1 [27/52] | < 0.1 µM | 0.1 to 1 µM | < 0.1 µM | –
Cc1ccc2ccccc2c1C(=O)N(Cc1ccc(-c2cccc(C(C)(N)C(=O)O)c2)cc1)Cc1ccc(C(F)(F)F)o1 (stereo not shown) [27/74] | 0.1 to 1 µM | 0.1 to 1 µM | < 0.1 µM | –
COc1ccc2c(CN(Cc3ccc(-c4cccc(C(C)(C)C(=O)O)c4)cc3)Cc3ccc(C(F)(F)F)o3)cc(C)cc2c1 [27/24] | 0.1 to 1 µM | 1 to 10 µM | < 0.1 µM | –
Cc1ccc2ccccc2c1C(=O)N(Cc1ccc(-c2cccc([C@H](C)C(=O)O)c2)cc1)Cc1ccc(C(F)(F)F)o1 [10/6] | < 0.1 µM | < 0.1 µM | < 0.1 µM | –
Cc1cc(C)c(CN(Cc2ccc(-c3cc(F)cc(S(=O)(=O)CC(=O)O)c3)cc2)Cc2ccc(C(F)(F)F)o2)c(C)c1 [12/1] | 0.1 to 1 µM | 0.1 to 1 µM | 0.1 to 1 µM | –
Cc1cc(Br)cc(C)c1C(=O)N(Cc1ccc(-c2cccc(C(C)(C)C(=O)O)c2)cc1)Cc1ccc(C(F)(F)F)o1 [27/48] | < 0.1 µM | 0.1 to 1 µM | < 0.1 µM | –
Cc1ccc2ccc(C#N)cc2c1CN(Cc1ccc(-c2cccc(C(C)(C)C(=O)O)c2)cc1)Cc1ccc(C(F)(F)F)o1 [27/27] | < 0.1 µM | 0.1 to 1 µM | < 0.1 µM | –
Cc1nc2cccnc2c(C(=O)N(Cc2ccc(-c3cccc(C(C)(C)C(=O)O)c3)cc2)Cc2cncc(C(F)(F)F)c2)c1C [27/131] | 0.1 to 1 µM | 0.1 to 1 µM | 0.1 to 1 µM | –
Cc1ccc2ccccc2c1CN(Cc1ccc(-c2cncc(S(=O)(=O)CC(=O)O)c2)cc1)Cc1ccc(C(F)(F)F)o1 [26/7] | 1 to 10 µM | > 10 µM | 0.1 to 1 µM | –
Cc1ccc2ccccc2c1C(=O)N(Cc1ccc(-c2cccc(C(C)(C)C(=O)O)c2)cc1)C1CCc2ccc(C(F)(F)F)cc21 (stereo not shown) [27/5] | < 0.1 µM | 0.1 to 1 µM | < 0.1 µM | –
CCc1cc(-c2cncc(C(C)(C)C(=O)O)c2)ccc1CN(Cc1ccc(C(F)(F)F)o1)C(=O)c1c(C)ccc2ccccc12 [27/65] | < 0.1 µM | 0.1 to 1 µM | < 0.1 µM | –
Cc1cnc2cccnc2c1C(=O)N(Cc1ccc(C(F)(F)F)o1)Cc1ccc(-c2cccc(C(C)(C)C(=O)O)c2)cc1Cl [27/115] | < 0.1 µM | 0.1 to 1 µM | < 0.1 µM | –
O=C(O)CS(=O)(=O)c1cccc(-c2ccc(CN(Cc3ccc(C(F)(F)F)o3)C(=O)c3cccc4ccccc34)cc2)c1 [27/41] | 1 to 10 µM | 1 to 10 µM | 1 to 10 µM | –
